Reference: patent publication US6656970B2, “Method and compositions for solubilization of pentacyclic triterpenes” (Dabur Research Foundation, priority 2000, dated 2003)
≈ marks a conversion by molar mass, not a printed value.

Key:
[1] = Solubility in individual solvents; format: physicochemical
Description: (§1) The solubility of betulinic acid and its derivatives was determined in various individual solvents. Based on the solubility of betulinic acid in these particular vehicles, it was then attempted to enhance the solubility of betulinic acid by mixing different solvents according to the principles of co-solvency (Spiegel and Noseworthy, 1963, Yalkowsky and Roseman, 1981). Different solvent systems were evaluated to arrive at a suitable relevant stock composition. The stock composition would then be diluted with a final solvent or intravenous solution to yield a working formulation of 0.001-40 mg/ml.
(§2) Several methods and compositions were evaluated for their ability to solubilize betulinic acid and its derivatives in water miscible, physiologically acceptable vehicles. The solvents that were tried included DMA, dimethylsulfoxide (DMSO), absolute ethanol, glycerin, polyethylene glycols (PEGs) and propylene glycol, in addition to the aqueous diluting fluids normal saline, and 2-25% dextrose in solution.

[2] = Amount of drug dissolved in solvent/co-solvent/solubilizer compositions; format: physicochemical
Description: as §1, §2
A concentrated solution of betulinic acid or its derivatives was prepared by dissolving 50-200 mg of betulinic acid or its derivatives in 1 ml of DMA. The above stock solution was diluted with PEG (polyethylene glycol, MW 300) in a ratio of 1:4 to a concentration of 10-40 mg/ml.
(§3) In the following examples one or more co-solvents with a solubilizers or a combination of (solubilizers) was added to keep the drug in solution after diluting with an aqueous intravenous diluting fluid.

[3] = Clarity / precipitation on dilution of the composition with aqueous diluting fluid; format: physicochemical
Description: as §1, §2, §3

[4] = test system: cultured human melanoma cells; conditions: cited from earlier work
human melanomas = conditions: cited from earlier work
[5] = Example 6: DMA 50% v/v, Tween 80 50% w/v

C=C(C)[C@@H]1CC[C@]2(C(=O)O)CC[C@]3(C)[C@H](CC[C@@H]4[C@@]5(C)CC[C@H](O)C(C)(C)[C@@H]5CC[C@]43C)[C@@H]12 [betulinic acid]
solubility ([1]; Absolute ethanol, organic solvent or mixture, Absolute ethanol, varies depending upon the derivative, read-out: SOLUBILITY): 3000 to 10000 µg/mL (≈ 6.57 to 21.9 mM)
solubility ([1]; Dimethylsulfoxide (DMSO), organic solvent or mixture, Dimethylsulfoxide (DMSO), read-out: SOLUBILITY): ≤ 100000 µg/mL
solubility ([1]; Glycerin): insoluble
solubility ([1]; N,N-dimethylacetamide (DMA), organic solvent or mixture, N,N Dimethylacetamide (DMA), read-out: SOLUBILITY): ≤ 250000 µg/mL
solubility ([1]; Polyethylene glycols (MW 200, 300, 400), organic solvent or mixture, Polyethylene glycols (MW 200, 300, 400), read-out: SOLUBILITY): < 5000 µg/mL
solubility ([1]; Propylene glycol, organic solvent or mixture, Propylene glycol, read-out: SOLUBILITY): < 5000 µg/mL
solubility ([1]; Water): insoluble
solubility ([1]; most of the aqueous solvents): insoluble
drug concentration the composition could dissolve [2, 5]: ≤ 20000 µg/mL
drug concentration the composition could dissolve ([2]; Example 7: Absolute ethanol 20-40% v/v, Tween 80 60-80% w/v): ≤ 20000 µg/mL
drug concentration the composition could dissolve ([2]; Example 8: Absolute ethanol 65% v/v, Tween 80 5% w/v, PEG 300 30% v/v): up to 6 mg/ml
drug concentration the composition could dissolve ([2]; Example 9: Absolute ethanol 35% v/v, Tween 80 15% w/v, PEG 300 50% v/v): up to 4 mg/ml
drug concentration that could be dissolved in the compositions ([2]; Example 16: DMA 20-50% v/v, PEG 300 20-40% v/v, Tween 80 5-30% w/v): Up to 22 mg/ml
drug concentration the compositions could dissolve ([2]; Examples 12 and 13: DMA 20% v/v, MYRJ 52 20-30% w/v, Tween 20-50% w/v, with or without PEG 300 40% v/v): ≤ 20000 µg/mL
drug concentration the compositions could dissolve ([2]; Examples 14 and 15: DMA 20% v/v, Tween 80 20% w/v, PEG 300 55-57% v/v, Poloxamer 407 3% w/v or Lecithin 5% w/v): 2000 to 15000 µg/mL
solubility ([2]; organic solvent or mixture, Examples 10 and 11: DMA 10-20% v/v, Propylene glycol 10-20% v/v, Absolute ethanol 30-35% v/v, Tween 80 35-40% w/v, read-out: concentration range soluble in the system): 2000 to 15000 µg/mL
behaviour on dilution with the aqueous diluting fluid ([3]; Example 3: 50 mg drug, DMA 20% v/v, PEG 300 80% v/v, even at concentrations as low as 0.001-0.1 mg/ml): immediate precipitation
behaviour on dilution with the aqueous diluting fluid ([3]; Example 3: 200 mg drug, DMA 20% v/v, PEG 300 80% v/v): immediately precipitated out
behaviour on dilution with aqueous diluting fluid ([3]; Example 4: 50 mg drug, DMA 50% v/v, PEG 300 50% v/v, diluted with 2-25% dextrose or normal saline): gave a viscous solution which gels over time although there are no signs of any precipitation of drug
behaviour on dilution with aqueous diluting fluid [3, 5]: immediately precipitated out
time the drug solution remained clear on dilution ([3]; Example 7: Absolute ethanol 20-40% v/v, Tween 80 60-80% w/v, diluted with aqueous diluting fluid to 0.3-1.4 mg/ml): ≤ 3 h
behaviour on dilution with aqueous diluting fluid ([3]; Example 8: Absolute ethanol 65% v/v, Tween 80 5% w/v, PEG 300 30% v/v, diluted to 0.08-0.4 mg/ml): remained clear
behaviour on dilution with aqueous diluting fluid ([3]; Example 9: Absolute ethanol 35% v/v, Tween 80 15% w/v, PEG 300 50% v/v, diluted to 0.08 to 0.4 mg/ml): remained clear
behaviour on dilution with aqueous diluting fluid ([3]; Example 9 composition, diluted outside the range 0.08 to 0.4 mg/ml): immediate precipitation
time the composition remained clear without any precipitation on dilution ([3]; Example 16: DMA 20-50% v/v, PEG 300 20-40% v/v, Tween 80 5-30% w/v, diluted with aqueous diluting fluid to 0.1-10 mg/ml): more than 5 days
behaviour on dilution with an aqueous diluting fluid ([3]; Examples 10 and 11 compositions, at a lower concentration of 0.012-2 mg/ml): remains clear
behaviour on dilution with aqueous diluting fluid ([3]; Examples 12 and 13 compositions containing MYRJ 52, diluted to 0.1-1.0 mg/ml): precipitated out in a few hours
behaviour on dilution with the aqueous diluting fluid ([3]; Examples 14 and 15 compositions, only at lower dilutions (0.001-1 mg/ml)): remained soluble
cytotoxicity [4]: melanoma-specific cytotoxic agent
tumor growth (human melanomas; athymic mice carrying human melanomas): completely inhibited
toxicity (human melanomas; mouse, in vivo): without toxicity
